Test results as given in article PMC6387142, “Multi-Residue Method for the Analysis of Stilbene Estrogens in Milk” (International Journal of Molecular Sciences, 2019).

Biological target: T1, estrogen receptor α ligand binding domain (ER-LBD) (Homo sapiens, UniProt P03372)
T1 construct: gene ESR1
T1 sequence (P03372 311-547 limits assumed): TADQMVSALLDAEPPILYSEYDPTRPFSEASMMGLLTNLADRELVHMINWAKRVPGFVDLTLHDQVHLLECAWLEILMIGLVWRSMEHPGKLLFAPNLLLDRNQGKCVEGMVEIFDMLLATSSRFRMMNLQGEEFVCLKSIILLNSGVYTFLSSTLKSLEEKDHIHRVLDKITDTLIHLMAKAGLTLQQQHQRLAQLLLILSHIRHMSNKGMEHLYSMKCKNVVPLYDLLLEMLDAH
Test: competitive fluorescence polarization, displacement of coumestrol from purified ER-LBD

Row | SMILES | IC50 [nM]
1 | C/C=C(/C(=C/C)c1ccc(O)cc1)c1ccc(O)cc1 [dienestrol] | 12.9
2 | CC[C@H](c1ccc(O)cc1)[C@@H](CC)c1ccc(O)cc1 [hexestrol] | 9.27
